The target in data set [1] is T1, TcPink1 (Tribolium castaneum, UniProt D6WMX4).
T1 construct: host or cells: E. coli Rosetta (DE3)
Nature of the data set: Peptide binding to immobilized protein in vitro, field-effect biosensing (FEB). As to conditions: AGILE Dev Kit graphene biosensor chip, protein 500 nM immobilized by EDC/sulfo-NHS, analyte 50 µL in PBS pH 7.4, Hill fit, mean ± SEM, read-out: KD of the peptides binding to TcPink1. The procedure:
In brief: Protein was immobilized/cross-linked into the carboxyl group present on the activated graphene biosensor chip. The analyte is applied in solution to the chip and when an interaction occurs, an alteration in the current (I) is measured and recorded in real-time throughout the experiment. The entire cycle of the experiment starts with calibration using PBS (pH 7.4) to record the baseline equilibration response. Followed by the association step by adding analyte (50 µL) at the desired concentrations in PBS (pH 7.4). After the experiment, data at the concentration points of the analytes were exported from 3 transistors, averaged, and any background drift recorded in PBS was subtracted.
Binding data of the peptides to immobilized protein in vitro was gathered using an AGILE Dev Kit label-free binding assay (Cardea, San Diego, CA, USA). […] After a rinse in PBS, base-line current levels for the chip were recorded for at least 5 min. Next, the PBS was aspirated, and a droplet of the tested analyte (50 μL) was applied to the chip and the change in the sensor chip readout was recorded, after that the analyte was aspirated and the chip was rinsed with PBS. […] After data were gathered, the responses of the sensors on a single assay chip were averaged, and any background drift recorded in PBS was subtracted. […] The KD values were calculated by GraghPad Prism 9, statistical analysis software. […]

The test system of data set [2] is T2, trypsin.
T2 construct: purchased Sigma-Aldrich; host or cells: porcine pancreas
Briefly: Stability of peptides under tryptic degradation, HPLC. In kind it is in vitro ADME. As to conditions: pig, trypsin from porcine pancreas; porcine pancreas trypsin (1 µL of 1 mg/mL); peptide 2 mg in 800 µL 50 mM Tris pH 8.0; 37 °C; 120 min; RP-HPLC, 214 nm; relative to time zero; n = 3; read-out: Degradation of the peptide by trypsin after 120 min. The procedure:
(§1) We tested the stability of the peptides using trypsin, an endopeptidase with specificity for cleaving the amide bond between a cationic amino acid and the next amino acid in the C-terminal direction, which is found in the digestive systems of many vertebrates, and it is commonly used as an important enzymatic reagent in biochemistry and biology.
(§2) The stability of the peptides was measured independently under tryptic degradation at 37 °C (by trypsin degradation of the peptide) and was determined by HPLC analysis (for more experimental details, see “Materials and Methods”) (n = 3). The starting time point (0 min, 100%) represents the peptide at the beginning of each experiment. […] Separation was performed by HPLC in the presence of 0.1% trifluoroacetic acid and detected by absorbance at 214 nm. Peptide amounts were calculated relative to the quantities determined at time point zero.
(§3) In brief: The stability studies of the peptides were performed by dissolving the peptides in Tris buffer and incubating them with trypsin solution at 37 °C using HPLC.
(§4) Further details: Trypsin from porcine pancreas was purchased from Sigma-Aldrich (Saint Louis, MO, USA). Peptide (2 mg) was dissolved in Tris buffer (800 µL, 50 mM (pH 8.0)). The peptide solution was mixed with 1 μL of trypsin solution (1 mg/mL in 50 mM Tris buffer (pH 8.0)). The peptide was incubated at 37 °C and samples (90 μL) were taken at 0, 5, 30, 60, and 120 min. The samples were mixed with TFA/CH3CN/H2O (2%/5%/93%, 90 µL). The peptides were analyzed by analytical reverse-phase high-pressure liquid chromatography (RP-HPLC) 1260 Infinity II LC System from Agilent, (Santa Clara, CA, USA) using a Luna 5 μm C18(2) 100 Å (250 × 4.6 mm) column (Phenomenex, Torrance, CA, USA) at 1 mL/min. The solvent systems used were A (H2O with 0.1% TFA) and B (CH3CN with 0.1% TFA). A linear gradient of 5–50% B in 15 min was applied, and the detection was at 214 nm and 254 nm.

In data set [3] the target is T3, trypsin (Sus scrofa, UniProt P00761).
T3 construct: purchased Sigma-Aldrich; host or cells: porcine pancreas
T3 sequence (P00761 9-231): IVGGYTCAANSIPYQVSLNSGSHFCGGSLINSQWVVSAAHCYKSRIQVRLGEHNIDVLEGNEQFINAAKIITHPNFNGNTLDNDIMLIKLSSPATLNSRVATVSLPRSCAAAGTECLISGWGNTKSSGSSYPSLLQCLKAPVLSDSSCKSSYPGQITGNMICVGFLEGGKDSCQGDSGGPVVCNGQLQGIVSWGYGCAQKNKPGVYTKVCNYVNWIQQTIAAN
The data set is described as above. Particulars: pig, trypsin from porcine pancreas, porcine pancreas trypsin (1 µL of 1 mg/mL), peptide 2 mg in 800 µL 50 mM Tris pH 8.0, 37 °C, RP-HPLC, 214 nm, relative to time zero, n = 3; for metabolised at 0.5 h, 2.5 mg/mL: 30 min, read-out: Degradation of the peptide by trypsin after 30 min. In kind it is in vitro ADME. The procedure:
as §1, §2, §3, §4

The target of data set [4] is T1, TcPink1. Nature of the data set: Cross-linking coupled with mass spectrometry (CLMS), BS3 cross-linker. In kind it is binding. As to conditions: BS3 cross-link CVP198 to CVP198 (residue 11 to residue 11), self cross-link in the CVP198 + tcPINK1 sample. Here is the method: (§5) Here, two water-soluble cross-linkers were used for the CLMS: 4-(4,6-dimethoxy-1,3,5-triazin-2-yl)-4-methyl-morpholinium chloride (DMTMM), and bis(sulfosuccinimidyl)suberate (BS3). DMTMM is a hetero-bifunctional amine-to-carboxylic acid crosslinker, and BS3 is a homo-bifunctional amine-to-amine crosslinker, which reacts primarily with the ε-amino group of lysine residues in proteins.
(§6) In brief: The recombinant protein and the peptide were incubated together with a crosslinker. The reaction was stopped with a quencher. The proteins were precipitated collected and trypsinased, the outcome was analysed by liquid chromatography mass spectrometry (LCMS).
(§7) A mixture solution of purified protein and peptide was prepared in HEPES buffer (50 mM HEPES, 150 mM NaCl (pH 8.0)). Protein TcPink1’s final concentration was 10 μM and hPink1’s final concentration was 2 μM. The peptide was added at a 1:10 or 1:100 protein-to-peptide ratio, and the mixture incubated with agitation for 20 min at room temperature. For BS3 cross-linking, a solution of BS3 in DMSO (150 mM) was used, which was diluted with the proteins to a final BS3 concentration of 1 mM. The cross-linking reaction was incubated at room temperature for 30 min with agitation. The reaction was quenched by adding ammonium bicarbonate to a final concentration of 30 mM.

Data set [5] concerns the target T1, TcPink1. Briefly: Cross-linking coupled with mass spectrometry (CLMS), DMTMM cross-linker. In kind it is binding. As to conditions: DMTMM cross-link CVP198-CVP198 (both partners the peptide), in the CVP-198 + tcPINK1 sample. The procedure: as §5, §6, §7
Data set [6] has as its target T4, Tribolium castaneum Pink1 (TcPink1) (Tribolium castaneum, UniProt D6WMX4 6-570).
T4 construct: No cleavage of MBP is described; also called pMal4c Pink1 (Tribolium castaneum) DU34701; not shown: MBP (from the vector pMal4c)
T4 sequence (looked up): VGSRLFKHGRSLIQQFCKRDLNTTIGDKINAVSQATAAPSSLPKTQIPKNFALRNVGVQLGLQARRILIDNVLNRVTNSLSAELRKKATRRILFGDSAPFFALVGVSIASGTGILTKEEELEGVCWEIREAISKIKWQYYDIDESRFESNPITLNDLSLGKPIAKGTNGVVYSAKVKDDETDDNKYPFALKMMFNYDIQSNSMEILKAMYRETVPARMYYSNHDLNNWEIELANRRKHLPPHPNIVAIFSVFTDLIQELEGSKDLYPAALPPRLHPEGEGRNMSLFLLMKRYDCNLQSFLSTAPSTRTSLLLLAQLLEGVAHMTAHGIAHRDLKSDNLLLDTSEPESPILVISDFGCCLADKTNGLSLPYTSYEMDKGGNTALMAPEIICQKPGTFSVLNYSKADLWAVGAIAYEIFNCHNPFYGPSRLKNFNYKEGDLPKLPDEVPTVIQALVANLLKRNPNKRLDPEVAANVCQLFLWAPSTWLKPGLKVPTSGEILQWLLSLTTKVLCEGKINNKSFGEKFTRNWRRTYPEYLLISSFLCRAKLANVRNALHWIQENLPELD
Nature of the data set: field-effect biosensing (FEB); TcPink1 (500 nM) covalently immobilised by EDC/sulfo-NHS on a graphene biosensor chip (AGILE Dev Kit, Cardea); peptides as analyte in PBS pH 7.4 at varying concentrations; Hill fit for KD. Particulars: both partners purified.

We go through 3 molecules from PMC9181014, “De Novo Development of Mitochondria-Targeted Molecular Probes Targeting Pink1” (International Journal of Molecular Sciences, 2022).

Numbered stars: 1 amine (or outer) side, 2 acyl side, 3 side chain; on linkers, the order of the positions; unused ones are H or OH. Bridge positions count the residues as written; N and C are the ends. Ends that are not written are not given here. Peptide text beside a SMILES is read from it. Suc = O=C(CCC(=O)[*:2])[*:1]

In the case of `CSCC[C@@H]1NC(=O)[C@H](CCCNC(=N)N)NC(=O)[C@H](CCC(N)=O)NC(=O)[C@H](CC(C)C)NC(=O)CNC(=O)CCC(=O)NCCCC[C@@H](C(=O)NCC(=O)NCC(=O)N[C@@H](Cc2ccc(O)cc2)C(=O)NCC(=O)N[C@@H](CCCNC(=N)N)C(=O)N[C@@H](CCCCN)C(=O)N[C@@H](CCCCN)C(=O)N[C@@H](CCCNC(=N)N)C(=O)N[C@@H](CCCNC(=N)N)C(=O)N[C@@H](CCC(N)=O)C(=O)N[C@@H](CCCNC(=N)N)C(=O)N[C@@H](CCCNC(=N)N)C(=O)N[C@@H](CCCNC(=N)N)C(N)=O)NC(=O)[C@H](CC(C)C)NC(=O)[C@H](CC(=O)O)NC(=O)[C@H](C(C)C)NC(=O)[C@H](CC(C)C)NC(=O)[C@H](C(C)C)NC1=O` [CVP-199] (GLQRMVLVDLKGGYGRKKRRQRRR-NH2; linker N-11 via Suc), the Kd (commonly a measure of binding affinity in units of concentration) at TcPink1 [1] came to 58.31 ± 0.02 µM. The metabolised at 2 h, 2.5 mg/mL in the data set with trypsin [2] was below 75%. Further, the metabolised at 0.5 h, 2.5 mg/mL at trypsin [3] amounted to 45%.
“Ac-GLQRMVLVDLKGGYGRKKRRQRRR-NH2 [CVP-198]”: the Kd at TcPink1 [1] worked out at 130.47 ± 0.01 µM. Also, the XL fragmentation score on TcPink1 [4] was 1; at TcPink1 [5] it was 0.74. On trypsin [3], the metabolised at 0.5 h, 2.5 mg/mL is around 70%. Further, the metabolised at 2 h, 2.5 mg/mL on trypsin [3] (120 min, read-out: Degradation of the peptide by trypsin after 120 min) is around 95%.

B1: CVP-200, backbone cyclic peptide (n = 3, bridge size 10, ring size 42) (peptide)
chain: GLQRMVLVDLKGGYGRKKRRQRRR-NH2
modifications: also: backbone cyclic: spacer on N-terminal amine linked to side chain of added lysine, that lysine's position not given here, linker at N via dicarboxylic acid spacer (n = 3), other end not in the chain
Molecule B1 yielded an equilibrium dissociation constant (Kd) in data set [6] of 139 µM.
